In BindingDB's records for patent US10196374 (Astrazeneca, 2019) one finds IC50 data, which are given here for one compound.

The target of the assay is T1, Glucocorticoid receptor (Homo sapiens, UniProt P04150).
T1 sequence (P04150 whole entry): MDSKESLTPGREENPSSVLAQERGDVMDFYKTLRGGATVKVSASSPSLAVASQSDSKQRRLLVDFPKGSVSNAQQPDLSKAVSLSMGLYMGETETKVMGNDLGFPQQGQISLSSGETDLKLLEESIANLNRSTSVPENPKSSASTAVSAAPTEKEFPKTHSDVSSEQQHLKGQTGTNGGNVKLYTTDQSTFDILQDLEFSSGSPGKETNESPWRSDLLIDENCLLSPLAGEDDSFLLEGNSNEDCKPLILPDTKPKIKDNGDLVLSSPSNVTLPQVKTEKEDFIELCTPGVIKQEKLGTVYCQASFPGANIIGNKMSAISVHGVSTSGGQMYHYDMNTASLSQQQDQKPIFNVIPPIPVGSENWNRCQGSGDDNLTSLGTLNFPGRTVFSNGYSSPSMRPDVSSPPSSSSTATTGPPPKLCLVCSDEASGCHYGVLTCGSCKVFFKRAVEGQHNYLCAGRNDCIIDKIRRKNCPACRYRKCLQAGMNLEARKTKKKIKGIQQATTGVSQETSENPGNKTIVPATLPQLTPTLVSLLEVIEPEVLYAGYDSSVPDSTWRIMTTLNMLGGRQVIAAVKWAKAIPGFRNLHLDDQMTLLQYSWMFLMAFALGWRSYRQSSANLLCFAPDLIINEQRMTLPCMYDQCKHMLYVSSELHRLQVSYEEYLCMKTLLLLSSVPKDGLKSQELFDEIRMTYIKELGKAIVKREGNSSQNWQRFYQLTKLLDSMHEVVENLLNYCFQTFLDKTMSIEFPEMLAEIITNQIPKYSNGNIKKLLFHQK
Briefly: GRE Antagonist Assay. The text has this: The generated cell line allows for identification of compounds showing antagonist activity at the human glucocorticoid receptor (GR) via reduction of LacZ gene expression. Dexamethasone-activated GR binds to the Glucocorticoid Response Element (GRE) in the promoter of the LacZ gene and transcription is initiated.

In the case of `CC(C)[C@H](NC(=O)C(C)(F)F)[C@H](Oc1ccc2c(cnn2-c2ccc(=O)n(C)c2)c1)c1ccccc1` [US10196374, Example 1], the IC50 (as a rule, the midpoint of a concentration-inhibition curve) amounted to 158 nM.
